# Laboratory results reported in the NIST ThermoML archive (doi:10.1016/j.jct.2013.10.010).
# Numbers after ± are expanded uncertainties.
# What was measured:
# [1] = φn = volume fraction of the nth substance listed; conditions: 298.15 K, Wilhelmy Plate Method
# [2] = 298.15 K, Wilhelmy Plate Method
surface tension liquid-gas ([1]; φ2 = 0) [mN/m],surface tension liquid-gas ([1]; φ1 = 0.1) [mN/m],surface tension liquid-gas ([1]; φ1 = 0.2) [mN/m],surface tension liquid-gas ([1]; φ1 = 0.3) [mN/m],surface tension liquid-gas [2] [mN/m],SMILES
71.8 ± 0.4,–,–,–,–,O [water] + C1COCCO1
–,68.3 ± 0.4,64.8 ± 0.4,61.5 ± 0.4,–,"OCCO [1,2-ethanediol] + O"
–,54 ± 0.4,52 ± 0.4,46.6 ± 0.4,–,"C1COCCO1 [1,4-dioxane] + O"
–,–,–,–,71.8 ± 0.4,O [water]
71.8 ± 0.4,–,–,–,–,O [water] + OCCO
